From US5698529A, “Chemotherapeutic compositions” (Supratek Pharma, Inc., priority 1996, dated 1997)
In brackets after ≈: the same amount, converted by molar mass.

Tests used:
SKVLB cells = test: cells; type: cell-based; details: Homo sapiens
Source text: The antineoplastic agent vinblastine is incorporated into the block copolymer mixture described in Example 3.
The antineoplastic agent mitomycin C is incorporated into the block copolymer mixture described in Example 3.
The antineoplastic agent methotrexate is incorporated into the block copolymer mixture described in Example 3.
The antineoplastic agent daunorubicin is incorporated into the block copolymer mixture described in Example 3.

[1] = system: normal human mononuclear cells; test: Cytotoxicity in normal human mononuclear cells, Example 4; type: cell-based
Description: B. Human ovarian carcinoma cells (CRL157) are precultured in 1% solution of the same block copolymer but without daunorubicin in RPMI 1640 medium supplemented with 10% calf fetal serum. The preparation of part A is added and the mixture is incubated for 60 minutes at 37° C. and the cells then washed three times with RPMI 1640 and cultured in RPMI 1640 supplemented with 10% calf fetal serum for 3 days {Prep. A}. Cytotoxicity is measured, both for this preparation and a parallel preparation of free daunorubicin {Prep. B}, using the method of Alley et al., Cancer Res., 48, 589-601 (1988). The results are as follows:
A. A 1:1.5 mixture of block copolymers of poly(oxyethylene)-poly(oxypropylene) (pluronics P-85 and L-64) having individual ratios (n) of (oxypropylene) to (oxyethylene) blocks of 1.00 and 1.50, respectively, and a combined value (N) of 1.30, is diluted with RPMI 1640 medium to a final concentration of 2.0% at 4° C. The mixture is incubated for 30 minutes at 37° C. and then sterilely filtered through a 0.22 μm filter. An equal volume of a solution of 200 μg daunorubicin in RPMI 1640 medium is added and this mixture is incubated for 30 minutes at 37° C.
Daunorubicin in the composition of Example 3 is evaluated for cytotoxicity in (i) human T-lymphoma (Jurkat) cells as described in Example 1 and (ii) normal human mononuclear cells.

SMILES: COc1cccc2c1C(=O)c1c(O)c3c(c(O)c1C2=O)C[C@@](O)(C(C)=O)C[C@@H]3O[C@H]1C[C@H](N)[C@H](O)[C@H](C)O1 [Prep. B, daunorubicin]
- IC50 (SKVLB cells): 5.85 µg/mL (≈ 11.1 µM)
- inhibition at 0.0032 µg/mL [1]: 1%
- inhibition at 0.016 µg/mL [1]: 18%
- inhibition at 0.08 µg/mL [1]: 23%
- inhibition at 0.4 µg/mL [1]: 58%
- inhibition at 2 µg/mL [1]: 80%
- inhibition at 10 µg/mL [1]: 100%
- inhibition at 50 µg/mL [1]: 100%
